Read-outs that look alike come from different tables or passages of the source.

Series [1] has as its system LNCaP human prostate carcinoma cells. Conditions: previously reported in Ramamurthy V et al., read-out: GI50s LNCaP; cited from earlier work.
Series [2] relates to CWR22Rv1 human prostate carcinoma cells. Conditions: previously reported in Ramamurthy V et al., read-out: GI50s CWR22Rv1; cited from earlier work.
In series [3] the test system is PC-3 human prostate carcinoma cells. Conditions: PC-3 cells; previously reported in Ramamurthy V et al.; read-out: GI50s PC-3; cited from earlier work.
Series [4] has as its system MCF-7 human breast cancer cells. Nature of the series: MTT cell proliferation assay, MCF-7. The note with it: MCF-7 cells; for IC50: Homo sapiens, MCF7, MTT, SEM < 10%, read-out: GI50s MCF-7. In kind it is cell-based. The text has this: (§1) MCF-7, MDA-MB-231, MDA-MB-468 and SKBR-3 human breast cancer cells and LNCaP, PC-3, and CWR22Rv1 human prostate carcinoma cells (American Type Culture Collection, Manassas, Va., USA) were maintained in RPMI 1640 media (Gibco-Life Technologies, Grand Island, N.Y., USA) supplemented with 10% fetal bovine serum and 1% penicillin/streptomycin. Western blotting was done as mentioned previously,^8, 13b using the following antibodies: AR, Bad, Bax, Bcl-2, eIF4E, Mnk1, Mnk-2, N-cadherin, PARP, peIF4E^ser209 purchased from Cell Signaling Technology, Danvers, Mass., USA. Anti-Mnk2 was purchased from Sigma-Aldrich and normal rabbit IgG, cyclin D1 was from Santa Cruz Biotechnology, CA, USA.
(§2) Cells were plated (2500 cells/well) in 96 well plates and treated with or without specified compounds as described previously.^8a, 12b
(§3) The clinically relevant retinoids, ATRA and 4-HPR and the Mnk inhibitor, cercosporamide were used as comparators in the assays.
A general note: Tetrazolium assays rely on reduction of a dye to a coloured formazan, in cell work by metabolically active cells.

Series [5] relates to MDA-MB-231 human breast cancer cells. Put plainly: MTT cell proliferation assay, MDA-MB-231. Type of series: cell-based. Conditions: MDA-MB-231 cells, SEM < 10%, read-out: GI50s MDA-MB-231.
From the text: as §1, §2, §3

The test system of series [6] is MDA-MB-468 human breast cancer cells. Put plainly: MTT cell proliferation assay, MDA-MB-468. The note with it: MDA-MB-468 cells, SEM < 10%, read-out: GI50s MDA-MB-468. In kind it is cell-based.
From the text: as §1, §2, §3

Series [7] concerns SKBR-3 human breast cancer cells. Put plainly: MTT cell proliferation assay, SKBR-3. Type of series: cell-based. Conditions: SK-BR-3, SKBR-3 cells, SEM < 10%, read-out: GI50s SKBR-3.
From the text: as §1, §2, §3

Series [8] has as its system LNCaP human prostate carcinoma cells. Put plainly: MTT cell proliferation assay, LNCaP. Type of series: cell-based. The note with it: SEM < 10%, read-out: GI50s LNCaP.
From the text: as §1, §2, §3
(§4) The PC-3 cell line was the least sensitive to all the compounds tested.

The subject of series [9] is CWR22Rv1 human prostate carcinoma cells. Nature of the series: MTT cell proliferation assay, CWR22Rv1. In kind it is cell-based. Conditions: SEM < 10%, read-out: GI50s CWR22Rv1.
From the text: as §1, §2, §3, §4

In series [10] the test system is PC-3 human prostate carcinoma cells. Nature of the series: MTT cell proliferation assay, PC-3. In kind it is cell-based. The note with it: PC-3 cells, SEM < 10%, read-out: GI50s PC-3.
From the text: as §1, §2, §3, §4

The subject of series [11] is MCF-7, MDA-MB-231, MDA-MB-468 and SKBR-3 human breast cancer cells. Nature of the series: MTT cell proliferation assay, four breast cancer cell lines together. In kind it is cell-based. The note with it: range across the four BC cell lines, read-out: GI50s, range over the BC cell lines.
From the text: as §1, §2, §3

`CC(O)(CS(=O)(=O)c1ccc(F)cc1)C(=O)Nc1ccc(C#N)c(C(F)(F)F)c1` (stereo not drawn) [Casodex]: the IC50 is 2.61 µM in series [1], 3.81 µM in [2] and 9.15 µM in series [3].

Regarding `CC1=C(/C=C/C(C)=C/C=C/C(C)=C/C(=O)Nc2ccc(O)cc2)C(C)(C)CCC1` [Compound 4-HPR, N-(4-hydroxyphenyl) retinamide, reference compound], the IC50 in [4] is 4.65 µM; in series [5] it was 11.1 µM; in series [6] it was 6.02 µM; in [7] it was 3.98 µM; in [1] it was 2.69 µM; in [2] it was 3.23 µM. For the same molecule, in series [3], the IC50 is 3.54 µM.

For `CC1=C(/C=C/C(C)=C/C=C/C(C)=C\C(=O)Nc2ccc(O)cc2)C(C)(C)CCC1n1ccnc1` (stereo not drawn) [Compound 17, (2Z,4E,6E,8E)-9-(3-(1H-imidazol-1-yl)-2,6,6-trimethylcyclohex-1-en-1-yl)-N-(4-hydroxyphenyl)-3,7-dimethylnona-2,4,6,8-tetraenamide], the IC50 was determined as 1.99 µM in series [4]; 13.1 µM in series [5]; 6.83 µM in [6]; 3.89 µM in [7]; 3.54 µM in series [8]; 3.89 µM in series [9]. The IC50 in series [10] turned out to be 11.7 µM.

`CC1=C(/C=C/C(C)=C/C=C/C(C)=C\C(=O)Nc2ccccc2O)C(C)(C)CCC1n1ccnc1` (stereo not drawn) [Compound 18, (2Z,4E,6E,8E)-9-(3-(1H-imidazol-1-yl)-2,6,6-trimethylcyclohex-1-en-1-yl)-N-(2-hydroxyphenyl)-3,7-dimethylnona-2,4,6,8-tetraenamide]: the IC50 worked out at 1.09 µM in series [4]; 4.67 µM in [5]; 3.03 µM in series [6]; 3.89 µM in series [7]; 3.23 µM in series [8]; 2.23 µM in series [9]. For the same molecule, the IC50 in series [10] was determined as 15.5 µM.

For `CC1=C(/C=C/C(C)=C/C=C/C(C)=C\C(=O)Nc2ccc(F)cc2)C(C)(C)CCC1n1ccnc1` (stereo not drawn) [Compound 19, (2Z,4E,6E,8E)-9-(3-(1H-imidazol-1-yl)-2,6,6-trimethylcyclohex-1-en-1-yl)-N-(4-fluorophenyl)-3,7-dimethylnona-2,4,6,8-tetraenamide], the IC50 in series [4] was 0.4 µM; in [5], 4.95 µM; in series [6] it was 4.57 µM; in series [7], 25.1 µM; in series [8], 3.89 µM; in series [10], 30.2 µM. Besides, the “fold more potent than Compound 16 (GI50, MCF-7)” value in series [4] (versus Compound 16) is on record as roughly 4.8 fold.

Take `CC1=C(/C=C/C(C)=C/C=C/C(C)=C\C(=O)NCc2ccccc2)C(C)(C)CCC1n1ccnc1` (stereo not drawn) [Compound 21, (2Z,4E,6E,8E)-9-(3-(1H-imidazol-1-yl)-2,6,6-trimethylcyclohex-1-en-1-yl)-N-benzyl-3,7-dimethylnona-2,4,6,8-tetraenamide]: the IC50 in series [4] was 9.77 µM; in series [5] it was 5.88 µM; in series [6], 7.24 µM; in series [7], 10.7 µM; in series [11], 5.88 to 10.7 µM.

As usually defined, the melting point is the temperature of the solid-liquid transition. The molecule `CC1=C(/C=C/C(C)=C/C=C/C(C)=C\C(=O)NCc2ccc(F)cc2)C(C)(C)CCC1n1ccnc1` (stereo not drawn) [Compound 23, (2Z,4E,6E,8E)-9-(3-(1H-imidazol-1-yl)-2,6,6-trimethylcyclohex-1-en-1-yl)-N-(4-fluorobenzyl)-3,7-dimethylnona-2,4,6,8-tetraenamide] registered a melting point of 93 to 95 °C. In series [4], the IC50 amounted to 1.93 µM. For the same molecule, the IC50 in series [5] came to 1.41 µM. Further, the IC50 in series [6] was determined as 2.45 µM. Besides, the IC50 in [7] was determined as 5.5 µM.

Consider `CC1=C(/C=C/C(C)=C/C=C/C(C)=C\C(=O)NCc2cccc(F)c2)C(C)(C)CCC1n1ccnc1` (stereo not drawn) [Compound 24, (2Z,4E,6E,8E)-9-(3-(1H-imidazol-1-yl)-2,6,6-trimethylcyclohex-1-en-1-yl)-N-(3-fluorobenzyl)-3,7-dimethylnona-2,4,6,8-tetraenamide], for which the IC50 was found to be 1.81 µM in [4], 1.65 µM in series [5], 2.45 µM in series [6] and 5.5 µM in [7].

Regarding `CC1=C(/C=C/C(C)=C/C=C/C(C)=C\C(=O)NCCc2ccc(O)cc2)C(C)(C)CCC1n1ccnc1` (stereo not drawn) [Compound 25, (2Z,4E,6E,8E)-9-(3-(1H-imidazol-1-yl)-2,6,6-trimethylcyclohex-1-en-1-yl)-N-(4-hydroxyphenethyl)-3,7-dimethylnona-2,4,6,8-tetraenamide], the melting point fell in the range of 126 to 128 °C. In series [4], the IC50 is 1.9 µM. Further, the IC50 in [5] was found to be 2.88 µM. Further, in series [6], the IC50 came to 13.5 µM. The IC50 in series [7] turned out to be 1.41 µM.

In the case of `CC1=C(/C=C/C(C)=C/C=C/C(C)=C\C(=O)Nc2ccccc2)C(C)(C)CC=C1c1cccnc1` [Compound 35, (2Z,4E,6E,8E)-3,7-dimethyl-N-phenyl-9-(2,6,6-trimethyl-3-(pyridin-3-yl)cyclohexa-1,3-dien-1-yl)nona-2,4,6,8-tetraenamide], the IC50 in series [4] was 8.32 µM; in series [5], 25.1 µM; in series [6], 39.8 µM; in series [7], 47.4 µM.

Consider `CC1=C(/C=C/C(C)=C/C=C/C(C)=C\C(=O)NCc2ccc(O)cc2)C(C)(C)CC=C1c1cccnc1` [Compound 36, (2Z,4E,6E,8E)-N-(4-hydroxybenzyl)-3,7-dimethyl-9-(2,6,6-trimethyl-3-(pyridin-3-yl)cyclohexa-1,3-dien-1-yl)nona-2,4,6,8-tetraenamide], for which the melting point was 124 to 126 °C.

On to `CC1=C(/C=C/C(C)=C/C=C/C(C)=C\C(=O)NCCc2ccc(O)cc2)C(C)(C)CC=C1c1cccnc1` [Compound 37, (2Z,4E,6E,8E)-N-(4-hydroxyphenethyl)-3,7-dimethyl-9-(2,6,6-trimethyl-3-(pyridin-3-yl)cyclohexa-1,3-dien-1-yl)nona-2,4,6,8-tetraenamide], for which the melting point lay within 110 to 112 °C. Moreover, the IC50 in series [4] came out at 8.75 µM. For the same molecule, the IC50 in [5] was 26.9 µM. In addition, the IC50 in [6] was 50.1 µM. In addition, the IC50 in series [7] stood at 42.2 µM.

As to `CC1=C(/C=C/C(C)=C/C=C/C(C)=C\C(=O)Nc2ccccc2)C(C)(C)CC=C1c1cncnc1` [Compound 38, (2Z,4E,6E,8E)-3,7-dimethyl-N-phenyl-9-(2,6,6-trimethyl-3-(pyrimidin-5-yl)cyclohexa-1,3-dien-1-yl)nona-2,4,6,8-tetraenamide], the melting point is 105 to 107 °C. The IC50 in series [4] turned out to be 7.01 µM. Besides, the IC50 in series [5] was determined as 26.9 µM. Further, the IC50 in [6] came out at 22.9 µM. The IC50 in series [7] worked out at 31 µM.

Consider `CC1=C(/C=C/C(C)=C/C=C/C(C)=C\C(=O)NCc2ccc(O)cc2)C(C)(C)CC=C1c1cncnc1` [Compound 39, (2Z,4E,6E,8E)-N-(4-hydroxybenzyl)-3,7-dimethyl-9-(2,6,6-trimethyl-3-(pyrimidin-5-yl)cyclohexa-1,3-dien-1-yl)nona-2,4,6,8-tetraenamide], for which the melting point lay in the range of 145 to 147 °C. In addition, in [4], the IC50 was 4.96 µM. Also, in series [5], the IC50 stood at 11.5 µM. Also, the IC50 in series [6] is 19.1 µM. Besides, in series [7], the IC50 amounted to 11.5 µM.

With `CC1=C(/C=C/C(C)=C/C=C/C(C)=C\C(=O)NCCc2ccc(O)cc2)C(C)(C)CC=C1c1cncnc1` [Compound 40, (2Z,4E,6E,8E)-N-(4-hydroxyphenethyl)-3,7-dimethyl-9-(2,6,6-trimethyl-3-(pyrimidin-5-yl)cyclohexa-1,3-dien-1-yl)nona-2,4,6,8-tetraenamide], the melting point lay in the range of 115 to 117 °C. The IC50 in series [4] is 2.96 µM. Further, the IC50 in [5] turned out to be 14.5 µM. Besides, the IC50 in series [6] worked out at 23.4 µM. In series [7], the IC50 turned out to be 24 µM.

The values are drawn from US10793525B2, “13-cis-RAMBA retinamides that degrade MNKs for treating cancer” (UNIVERSITY OF MARYLAND, BALTIMORE, priority 2014, dated 2020).
